Target: Sodium-dependent dopamine transporter (Homo sapiens, UniProt Q01959, F472L)
Experiment: Inhibition of [3H]dopamine uptake at human DAT F472L mutant expressed in african green monkey COS1 cells after 48 hrs
Format: cell-based, COS-1

Sodium-dependent dopamine transporter, sequence (Q01959 whole entry F472L): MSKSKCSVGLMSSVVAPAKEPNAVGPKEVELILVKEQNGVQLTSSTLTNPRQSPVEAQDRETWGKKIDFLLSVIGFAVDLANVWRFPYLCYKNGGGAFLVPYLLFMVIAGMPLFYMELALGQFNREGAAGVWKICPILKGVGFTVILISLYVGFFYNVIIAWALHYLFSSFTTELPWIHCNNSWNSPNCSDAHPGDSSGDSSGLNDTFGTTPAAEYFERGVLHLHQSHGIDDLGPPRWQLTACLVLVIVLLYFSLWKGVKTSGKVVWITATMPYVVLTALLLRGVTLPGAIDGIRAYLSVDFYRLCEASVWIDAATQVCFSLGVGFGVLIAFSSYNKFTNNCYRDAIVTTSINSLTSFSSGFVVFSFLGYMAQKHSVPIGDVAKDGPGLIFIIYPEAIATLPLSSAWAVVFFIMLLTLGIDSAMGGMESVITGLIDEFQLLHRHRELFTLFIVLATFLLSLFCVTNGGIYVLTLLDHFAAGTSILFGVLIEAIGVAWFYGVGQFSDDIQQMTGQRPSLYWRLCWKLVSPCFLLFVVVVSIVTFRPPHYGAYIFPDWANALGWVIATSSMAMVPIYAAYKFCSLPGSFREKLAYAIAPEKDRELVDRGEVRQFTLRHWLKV

## CC(C)C[C@@H]1NC(=O)[C@H](CCCCN)NC(=O)[C@H](Cc2ccc(O)cc2)NC(=O)CNC(=O)[C@@H]2CSSC[C@H](NC1=O)C(=O)N[C@@H](Cc1cnc[nH]1)C(=O)N1C[C@H](O)C[C@H]1C(=O)N[C@H](C(=O)O)CSSC[C@H](NC(=O)[C@@H](NC(=O)CNC(=O)[C@@H](N)CC(N)=O)C(C)C)C(=O)N2
  IC50: 200 µM

Reference: ChEMBL document CHEMBL1156458, “chi-Conotoxin and tricyclic antidepressant interactions at the norepinephrine transporter define a new transporter model” (J Biol Chem, 2007)
